Broadly, the IC50 is the concentration needed to halve the response being measured.

Structures are written as SMILES.

The assay has as its target T1, Human Neutrophil Elastase (HNE) (Homo sapiens, UniProt P08246).
T1 construct: Human Neutrophil Elastase (HNE) purified from serum; purchased Calbiochem 324681; host or cells: natural human material (serum)
T1 sequence (P08246 30-247 limits assumed): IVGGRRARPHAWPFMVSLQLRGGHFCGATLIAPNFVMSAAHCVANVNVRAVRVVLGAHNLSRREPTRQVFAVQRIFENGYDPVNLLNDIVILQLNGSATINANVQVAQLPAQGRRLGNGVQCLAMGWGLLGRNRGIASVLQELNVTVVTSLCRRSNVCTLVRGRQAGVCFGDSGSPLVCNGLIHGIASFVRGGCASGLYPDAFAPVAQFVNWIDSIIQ
In words: Human Neutrophil Elastase Quenched-FRET Assay. It is filed as biochemical. Conditions: HNE purified from serum; substrate MeOSuc-AAPV-AMC; 15 min preincubation, 30 min incubation at room temperature; read-out: Inhibition of Human Neutrophil Elastase IC50. The method, then:
Human Neutrophil Elastase Quenched-FRET Assay
The assay uses Human Neutrophil Elastase (HNE) purified from serum (Calbiochem art. 324681; Ref. Baugh, R. J. et al., 1976, Biochemistry. 15, 836-841). HNE was stored in 50 mM NaOAc, 200 mM NaCl, pH 5.5 with added 30% glycerol at −20° C. The protease substrate used was Elastase Substrate V Fluorogenic, MeOSuc-AAPV-AMC (Calbiochem art. 324740; Ref. Castillo, M. J. et al., 1979, Anal. Biochem. 99, 53-64). The substrate was stored in DMSO at −20° C. The assay additions were as follows: Test compounds and controls were added to black 96-well flat-bottom plates (Greiner 655076), 1 μL in 100% DMSO, followed by 30 μL HNE in assay buffer with 0.01% TritonX-100. The assay buffer constitution was: 100 mM Tris (pH 7.5) and 500 mM NaCl. The enzyme and the compounds were incubated at room temperature for 15 minutes. Then 30 μl substrate in assay buffer was added. The assay was stopped after 30 minutes incubation at room temperature by adding 60 μl stop solution (140 mM acetic acid, 200 mM sodium monochloroacetate, 60 mM sodium acetate, pH 4.3). Fluorescence was measured on a Wallac 1420 Victor 2 instrument at settings: Excitation 380 nm, Emission 460 nm. IC50 values were determined using Xlfit curve fitting using model 205.
On to `O=C(NCC1COc2ccccc2O1)c1cc2ccccc2n(-c2cccc(C(F)(F)F)c2)c1=O` (stereo not drawn) [Example 2.51, N-(2,3-Dihydro-1,4-benzodioxin-2-ylmethyl)-2-oxo-1-[3-(trifluoromethyl)phenyl]-1,2-dihydroquinoline-3-carboxamide], for which the IC50 worked out at 390 nM.

Consider `O=C(NCc1ccc(F)c(F)c1)c1cc2ccccc2n(-c2cccc(C(F)(F)F)c2)c1=O` [Example 2.26, N-(3,4-Difluorobenzyl)-2-oxo-1-[3-(trifluoromethyl)phenyl]-1,2-dihydroquinoline-3-carboxamide], for which the IC50 amounted to 500 nM.

As for `CC(=O)Nc1ccc(CNC(=O)c2cc3ccccc3n(-c3cccc(C(F)(F)F)c3)c2=O)cc1` [Example 2.66, N-[4-(Acetylamino)benzyl]-2-oxo-1-[3-(trifluoromethyl)phenyl]-1,2-dihydroquinoline-3-carboxamide], the IC50 is 320 nM.

For the origin of these results see patent publication US20070010551A1, “Quinoline derivatives as neutrophil elastase inhibitors and their use” (priority 2003, published 2007).
